Our source for the IC50 values is patent publication US9809623B2, “α4β7 peptide monomer and dimer antagonists” (Protagonist Therapeutics, Inc., priority 2014, dated 2017).

In general, IC50 refers to the concentration at which inhibition is half-maximal.

Molecules are shown by their SMILES. Numbered stars: 1 amine (or outer) side, 2 acyl side, 3 side chain; on linkers, the order of the positions; unused ones are H or OH. Bridge positions count the residues as written; N and C are the ends. Square brackets hold non-standard residues; d marks the D form. Peptide text beside a SMILES is read from it. I, II: the chains in the order shown. 1Nal = N[C@@H](Cc1cccc2ccccc12)C(=O)O; 2Nal = N[C@@H](Cc1ccc2ccccc2c1)C(=O)O; Diglycolyl = O=C(COCC(=O)[*:2])[*:1]; NMeR = CN[C@@H](CCCNC(=N)N)C(=O)O; Tic = O=C(O)[C@@H]1Cc2ccccc2CN1; Pen = CC(C)(S)[C@H](N)C(=O)O

Sequence of α4β7 (P13612 34-1032): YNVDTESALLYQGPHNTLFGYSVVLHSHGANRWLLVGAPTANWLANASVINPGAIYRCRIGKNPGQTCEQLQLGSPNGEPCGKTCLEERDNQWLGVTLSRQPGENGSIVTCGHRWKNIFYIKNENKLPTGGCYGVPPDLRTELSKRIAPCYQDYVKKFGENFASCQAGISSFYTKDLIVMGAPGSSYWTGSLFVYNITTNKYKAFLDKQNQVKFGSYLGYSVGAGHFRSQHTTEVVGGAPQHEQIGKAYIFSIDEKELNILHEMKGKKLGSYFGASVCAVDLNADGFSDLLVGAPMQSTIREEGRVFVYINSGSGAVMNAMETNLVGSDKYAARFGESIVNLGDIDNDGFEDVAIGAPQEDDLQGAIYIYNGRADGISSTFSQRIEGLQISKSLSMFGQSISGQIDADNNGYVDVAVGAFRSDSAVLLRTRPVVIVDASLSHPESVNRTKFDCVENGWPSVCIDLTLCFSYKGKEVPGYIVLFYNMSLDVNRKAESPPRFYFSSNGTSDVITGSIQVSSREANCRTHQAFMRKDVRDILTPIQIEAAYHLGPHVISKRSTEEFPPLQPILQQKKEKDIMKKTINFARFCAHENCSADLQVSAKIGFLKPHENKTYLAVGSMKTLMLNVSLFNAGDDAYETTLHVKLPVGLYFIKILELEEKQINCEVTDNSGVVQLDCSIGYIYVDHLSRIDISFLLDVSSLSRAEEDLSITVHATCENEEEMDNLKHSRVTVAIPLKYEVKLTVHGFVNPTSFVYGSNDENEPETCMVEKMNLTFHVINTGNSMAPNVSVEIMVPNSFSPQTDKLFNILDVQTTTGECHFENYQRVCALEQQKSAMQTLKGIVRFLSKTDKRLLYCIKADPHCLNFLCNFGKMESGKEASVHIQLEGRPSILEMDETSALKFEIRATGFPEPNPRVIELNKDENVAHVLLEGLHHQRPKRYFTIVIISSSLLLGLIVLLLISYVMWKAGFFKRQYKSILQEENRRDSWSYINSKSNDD
Sequence of α4β7 (P26010 20-798): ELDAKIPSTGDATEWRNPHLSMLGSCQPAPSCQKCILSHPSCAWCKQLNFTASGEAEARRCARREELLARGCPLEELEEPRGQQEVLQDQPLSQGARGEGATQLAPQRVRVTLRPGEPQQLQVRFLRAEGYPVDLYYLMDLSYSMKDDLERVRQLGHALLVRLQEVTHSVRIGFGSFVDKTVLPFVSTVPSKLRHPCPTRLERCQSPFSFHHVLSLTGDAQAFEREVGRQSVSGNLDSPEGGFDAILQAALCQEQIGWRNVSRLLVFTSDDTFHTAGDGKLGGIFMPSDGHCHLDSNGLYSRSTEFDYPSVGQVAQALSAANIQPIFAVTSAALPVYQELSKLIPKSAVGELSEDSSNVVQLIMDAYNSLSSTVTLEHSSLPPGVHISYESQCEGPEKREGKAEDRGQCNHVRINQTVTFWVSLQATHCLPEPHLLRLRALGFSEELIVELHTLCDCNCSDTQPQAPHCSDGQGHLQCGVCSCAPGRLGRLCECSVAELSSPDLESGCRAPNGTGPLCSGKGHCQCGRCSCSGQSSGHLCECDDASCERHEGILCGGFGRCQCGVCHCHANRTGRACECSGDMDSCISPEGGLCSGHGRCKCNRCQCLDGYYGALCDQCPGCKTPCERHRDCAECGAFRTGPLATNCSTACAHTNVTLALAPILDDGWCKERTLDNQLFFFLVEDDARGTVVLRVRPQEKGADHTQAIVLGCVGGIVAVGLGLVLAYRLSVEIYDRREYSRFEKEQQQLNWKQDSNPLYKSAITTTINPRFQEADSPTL

The target of the assay is α4β7 (Homo sapiens, UniProt P13612+P26010). As to the kind of experiment: α4β7-MAdCAM Cell Adhesion Assay (RPMI 8866 human cells). Type of assay: cell-based. The arrangement: host or cells: RPMI 8866 human B lymphoblastoid cells. Particulars: Table 3-B, Potency (α4β7); range classes; read-out: α4β7 cell (Hu) IC50. In a few lines:
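Adhesion read-out: MTT absorbance at 570 nm minus no-cell wells, after three washes. Plates coated with rh MAdCAM-1/Fc received peptide dilutions plus 200,000 RPMI 8866 cells in Mn2+ (1 mM)-supplemented DMEM, 0.1% BSA, HEPES pH 7, incubated 30-45 min, 37 °C.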
As to `CC(=O)N[C@@H]1C(=O)N(C)[C@@H](CCCNC(=N)N)C(=O)N[C@@H](CO)C(=O)N[C@@H](CC(=O)O)C(=O)N[C@@H]([C@@H](C)O)C(=O)N[C@@H](CC(C)C)C(=O)N[C@H](C(=O)N[C@@H](Cc2cccc3ccccc23)C(=O)N[C@H](Cc2c[nH]cn2)C(=O)N[C@H](CCCCNC(=O)COCC(=O)NCCCC[C@@H](NC(=O)[C@@H](Cc2c[nH]cn2)NC(=O)[C@H](Cc2cccc3ccccc23)NC(=O)[C@H]2NC(=O)[C@H](CC(C)C)NC(=O)[C@H]([C@@H](C)O)NC(=O)[C@H](CC(=O)O)NC(=O)[C@H](CO)NC(=O)[C@H](CCCNC(=N)N)N(C)C(=O)[C@@H](NC(C)=O)C(C)(C)SSC2(C)C)C(N)=O)C(N)=O)C(C)(C)SSC1(C)C` [compound 112] (I: Ac-[Pen][NMeR]SDTL[Pen][1Nal][dH][dK]-NH2 / II: Ac-[Pen][NMeR]SDTL[Pen][1Nal][dH][dK]-NH2; disulfide I:1-I:7, II:1-II:7; linker I:10-II:10 via Diglycolyl), the concentration for half-maximal inhibition (IC50) was 50 to 100 nM.

Take `CC(=O)N[C@@H]1C(=O)N(C)[C@@H](CCCNC(=N)N)C(=O)N[C@@H](CO)C(=O)N[C@@H](CC(=O)O)C(=O)N[C@@H]([C@@H](C)O)C(=O)N[C@@H](CC(C)C)C(=O)N[C@H](C(=O)N[C@@H](Cc2cccc3ccccc23)C(=O)N[C@H](CC(C)C)C(=O)N[C@H](CCCCNC(=O)COCC(=O)NCCCC[C@@H](NC(=O)[C@@H](CC(C)C)NC(=O)[C@H](Cc2cccc3ccccc23)NC(=O)[C@H]2NC(=O)[C@H](CC(C)C)NC(=O)[C@H]([C@@H](C)O)NC(=O)[C@H](CC(=O)O)NC(=O)[C@H](CO)NC(=O)[C@H](CCCNC(=N)N)N(C)C(=O)[C@@H](NC(C)=O)C(C)(C)SSC2(C)C)C(N)=O)C(N)=O)C(C)(C)SSC1(C)C` [compound 113] (I: Ac-[Pen][NMeR]SDTL[Pen][1Nal][dL][dK]-NH2 / II: Ac-[Pen][NMeR]SDTL[Pen][1Nal][dL][dK]-NH2; disulfide I:1-I:7, II:1-II:7; linker I:10-II:10 via Diglycolyl): the IC50 was in the range of 500 to 1000 nM.

Consider `CC(=O)N[C@@H]1C(=O)N(C)[C@@H](CCCNC(=N)N)C(=O)N[C@@H](CO)C(=O)N[C@@H](CC(=O)O)C(=O)N[C@@H]([C@@H](C)O)C(=O)N[C@@H](CC(C)C)C(=O)N[C@H](C(=O)N[C@@H](Cc2cccc3ccccc23)C(=O)N[C@H](CCCNC(=N)N)C(=O)N[C@H](CCCCNC(=O)COCC(=O)NCCCC[C@@H](NC(=O)[C@@H](CCCNC(=N)N)NC(=O)[C@H](Cc2cccc3ccccc23)NC(=O)[C@H]2NC(=O)[C@H](CC(C)C)NC(=O)[C@H]([C@@H](C)O)NC(=O)[C@H](CC(=O)O)NC(=O)[C@H](CO)NC(=O)[C@H](CCCNC(=N)N)N(C)C(=O)[C@@H](NC(C)=O)C(C)(C)SSC2(C)C)C(N)=O)C(N)=O)C(C)(C)SSC1(C)C` [compound 114] (I: Ac-[Pen][NMeR]SDTL[Pen][1Nal][dR][dK]-NH2 / II: Ac-[Pen][NMeR]SDTL[Pen][1Nal][dR][dK]-NH2; disulfide I:1-I:7, II:1-II:7; linker I:10-II:10 via Diglycolyl), for which the IC50 was in the range of 100 to 500 nM.

As for `CC(=O)N[C@@H]1C(=O)N(C)[C@@H](CCCNC(=N)N)C(=O)N[C@@H](CO)C(=O)N[C@@H](CC(=O)O)C(=O)N[C@@H]([C@@H](C)O)C(=O)N[C@@H](CC(C)C)C(=O)N[C@H](C(=O)N[C@@H](Cc2cccc3ccccc23)C(=O)N2Cc3ccccc3C[C@H]2C(=O)N[C@H](CCCCNC(=O)COCC(=O)NCCCC[C@@H](NC(=O)[C@@H]2Cc3ccccc3CN2C(=O)[C@H](Cc2cccc3ccccc23)NC(=O)[C@H]2NC(=O)[C@H](CC(C)C)NC(=O)[C@H]([C@@H](C)O)NC(=O)[C@H](CC(=O)O)NC(=O)[C@H](CO)NC(=O)[C@H](CCCNC(=N)N)N(C)C(=O)[C@@H](NC(C)=O)C(C)(C)SSC2(C)C)C(N)=O)C(N)=O)C(C)(C)SSC1(C)C` [compound 115] (I: Ac-[Pen][NMeR]SDTL[Pen][1Nal][Tic][dK]-NH2 / II: Ac-[Pen][NMeR]SDTL[Pen][1Nal][Tic][dK]-NH2; disulfide I:1-I:7, II:1-II:7; linker I:10-II:10 via Diglycolyl), the IC50 was 100 to 500 nM.

For the molecule `CC(=O)N[C@@H]1C(=O)N(C)[C@@H](CCCNC(=N)N)C(=O)N[C@@H](CO)C(=O)N[C@@H](CC(=O)O)C(=O)N[C@@H]([C@@H](C)O)C(=O)N[C@@H](CC(C)C)C(=O)N[C@H](C(=O)N[C@@H](Cc2cccc3ccccc23)C(=O)N[C@@H](C(=O)N[C@H](CCCCNC(=O)COCC(=O)NCCCC[C@@H](NC(=O)[C@H](NC(=O)[C@H](Cc2cccc3ccccc23)NC(=O)[C@H]2NC(=O)[C@H](CC(C)C)NC(=O)[C@H]([C@@H](C)O)NC(=O)[C@H](CC(=O)O)NC(=O)[C@H](CO)NC(=O)[C@H](CCCNC(=N)N)N(C)C(=O)[C@@H](NC(C)=O)C(C)(C)SSC2(C)C)[C@H](C)O)C(N)=O)C(N)=O)[C@H](C)O)C(C)(C)SSC1(C)C` [compound 116] (I: Ac-[Pen][NMeR]SDTL[Pen][1Nal][dT][dK]-NH2 / II: Ac-[Pen][NMeR]SDTL[Pen][1Nal][dT][dK]-NH2; disulfide I:1-I:7, II:1-II:7; linker I:10-II:10 via Diglycolyl), the IC50 fell in the range of 50 to 100 nM.

`CC(=O)N[C@@H]1C(=O)N(C)[C@@H](CCCNC(=N)N)C(=O)N[C@@H](CO)C(=O)N[C@@H](CC(=O)O)C(=O)N[C@@H]([C@@H](C)O)C(=O)N[C@@H](CC(C)C)C(=O)N[C@H](C(=O)N[C@@H](Cc2ccc3ccccc3c2)C(=O)N[C@H](Cc2ccccc2)C(=O)N[C@H](CCCCNC(=O)COCC(=O)NCCCC[C@@H](NC(=O)[C@@H](Cc2ccccc2)NC(=O)[C@H](Cc2ccc3ccccc3c2)NC(=O)[C@H]2NC(=O)[C@H](CC(C)C)NC(=O)[C@H]([C@@H](C)O)NC(=O)[C@H](CC(=O)O)NC(=O)[C@H](CO)NC(=O)[C@H](CCCNC(=N)N)N(C)C(=O)[C@@H](NC(C)=O)C(C)(C)SSC2(C)C)C(N)=O)C(N)=O)C(C)(C)SSC1(C)C` [compound 117] (I: Ac-[Pen][NMeR]SDTL[Pen][2Nal][dF][dK]-NH2 / II: Ac-[Pen][NMeR]SDTL[Pen][2Nal][dF][dK]-NH2; disulfide I:1-I:7, II:1-II:7; linker I:10-II:10 via Diglycolyl): the IC50 is 100 to 500 nM.

Regarding `CC(=O)N[C@@H]1C(=O)N(C)[C@@H](CCCNC(=N)N)C(=O)N[C@@H](CO)C(=O)N[C@@H](CC(=O)O)C(=O)N[C@@H]([C@@H](C)O)C(=O)N[C@@H](CC(C)C)C(=O)N[C@H](C(=O)N[C@@H](Cc2ccc3ccccc3c2)C(=O)N[C@H](Cc2c[nH]cn2)C(=O)N[C@H](CCCCNC(=O)COCC(=O)NCCCC[C@@H](NC(=O)[C@@H](Cc2c[nH]cn2)NC(=O)[C@H](Cc2ccc3ccccc3c2)NC(=O)[C@H]2NC(=O)[C@H](CC(C)C)NC(=O)[C@H]([C@@H](C)O)NC(=O)[C@H](CC(=O)O)NC(=O)[C@H](CO)NC(=O)[C@H](CCCNC(=N)N)N(C)C(=O)[C@@H](NC(C)=O)C(C)(C)SSC2(C)C)C(N)=O)C(N)=O)C(C)(C)SSC1(C)C` [compound 118] (I: Ac-[Pen][NMeR]SDTL[Pen][2Nal][dH][dK]-NH2 / II: Ac-[Pen][NMeR]SDTL[Pen][2Nal][dH][dK]-NH2; disulfide I:1-I:7, II:1-II:7; linker I:10-II:10 via Diglycolyl), the IC50 fell in the range of 25 to 50 nM.

As for `CC(=O)N[C@@H]1C(=O)N(C)[C@@H](CCCNC(=N)N)C(=O)N[C@@H](CO)C(=O)N[C@@H](CC(=O)O)C(=O)N[C@@H]([C@@H](C)O)C(=O)N[C@@H](CC(C)C)C(=O)N[C@H](C(=O)N[C@@H](Cc2ccc3ccccc3c2)C(=O)N[C@H](CC(C)C)C(=O)N[C@H](CCCCNC(=O)COCC(=O)NCCCC[C@@H](NC(=O)[C@@H](CC(C)C)NC(=O)[C@H](Cc2ccc3ccccc3c2)NC(=O)[C@H]2NC(=O)[C@H](CC(C)C)NC(=O)[C@H]([C@@H](C)O)NC(=O)[C@H](CC(=O)O)NC(=O)[C@H](CO)NC(=O)[C@H](CCCNC(=N)N)N(C)C(=O)[C@@H](NC(C)=O)C(C)(C)SSC2(C)C)C(N)=O)C(N)=O)C(C)(C)SSC1(C)C` [compound 119] (I: Ac-[Pen][NMeR]SDTL[Pen][2Nal][dL][dK]-NH2 / II: Ac-[Pen][NMeR]SDTL[Pen][2Nal][dL][dK]-NH2; disulfide I:1-I:7, II:1-II:7; linker I:10-II:10 via Diglycolyl), the IC50 lay in the range of 500 to 1000 nM.

For the molecule `CC(=O)N[C@@H]1C(=O)N(C)[C@@H](CCCNC(=N)N)C(=O)N[C@@H](CO)C(=O)N[C@@H](CC(=O)O)C(=O)N[C@@H]([C@@H](C)O)C(=O)N[C@@H](CC(C)C)C(=O)N[C@H](C(=O)N[C@@H](Cc2ccc3ccccc3c2)C(=O)N[C@H](CCCNC(=N)N)C(=O)N[C@H](CCCCNC(=O)COCC(=O)NCCCC[C@@H](NC(=O)[C@@H](CCCNC(=N)N)NC(=O)[C@H](Cc2ccc3ccccc3c2)NC(=O)[C@H]2NC(=O)[C@H](CC(C)C)NC(=O)[C@H]([C@@H](C)O)NC(=O)[C@H](CC(=O)O)NC(=O)[C@H](CO)NC(=O)[C@H](CCCNC(=N)N)N(C)C(=O)[C@@H](NC(C)=O)C(C)(C)SSC2(C)C)C(N)=O)C(N)=O)C(C)(C)SSC1(C)C` [compound 120] (I: Ac-[Pen][NMeR]SDTL[Pen][2Nal][dR][dK]-NH2 / II: Ac-[Pen][NMeR]SDTL[Pen][2Nal][dR][dK]-NH2; disulfide I:1-I:7, II:1-II:7; linker I:10-II:10 via Diglycolyl), the IC50 fell in the range of 1000 to 10000 nM.

For `CC(=O)N[C@@H]1C(=O)N(C)[C@@H](CCCNC(=N)N)C(=O)N[C@@H](CO)C(=O)N[C@@H](CC(=O)O)C(=O)N[C@@H]([C@@H](C)O)C(=O)N[C@@H](CC(C)C)C(=O)N[C@H](C(=O)N[C@@H](Cc2ccc3ccccc3c2)C(=O)N2Cc3ccccc3C[C@H]2C(=O)N[C@H](CCCCNC(=O)COCC(=O)NCCCC[C@@H](NC(=O)[C@@H]2Cc3ccccc3CN2C(=O)[C@H](Cc2ccc3ccccc3c2)NC(=O)[C@H]2NC(=O)[C@H](CC(C)C)NC(=O)[C@H]([C@@H](C)O)NC(=O)[C@H](CC(=O)O)NC(=O)[C@H](CO)NC(=O)[C@H](CCCNC(=N)N)N(C)C(=O)[C@@H](NC(C)=O)C(C)(C)SSC2(C)C)C(N)=O)C(N)=O)C(C)(C)SSC1(C)C` [compound 121] (I: Ac-[Pen][NMeR]SDTL[Pen][2Nal][Tic][dK]-NH2 / II: Ac-[Pen][NMeR]SDTL[Pen][2Nal][Tic][dK]-NH2; disulfide I:1-I:7, II:1-II:7; linker I:10-II:10 via Diglycolyl), the concentration for half-maximal inhibition (IC50) lay within 100 to 500 nM.
